Results on 26 molecules are retold here after ChEMBL document CHEMBL1158378, “QSAR model for predicting radical scavenging activity of di(hetero)arylamines derivatives of benzo[b]thiophenes” (Eur J Med Chem, 2009).

One experiment concerns Radical scavenging activity. Kind of experiment: Antioxidant activity assessed as inhibition of DPPH radical formation by Hatano's method. Format: functional. For orientation: Loss of DPPH colour is used to gauge radical scavenging.
In general, pEC50 refers to the negative decadic logarithm of the EC50, by convention in mol/L. In the case of `COc1ccc(Nc2cc3sc(C)c(C)c3cc2C)cc1`, the pEC50 amounted to 4.14.

`COc1ccc(Nc2c(C(=O)O)sc3ccccc23)c(OC)c1`: the pEC50 came out at 3.61.

Consider `COc1ccc(Nc2cccc3c(C)c(C)sc23)cc1OC`, for which the negative-log EC50 (pEC50) stood at 4.26.

On to `COc1ccc(Nc2cc3sc(C)c(C)c3cc2C)cc1OC`, for which the negative logarithm of the EC50 (pEC50) is listed as 4.3.

Regarding `CCOC(=O)c1sc2ccccc2c1Nc1ccc(OC)cc1OC`, the negative-log EC50 (pEC50) turned out to be 3.77.

With `Cc1sc2c(Nc3cccnc3)cccc2c1C`, the pEC50 was 2.5.

`Cc1sc2c(Nc3ccccn3)cccc2c1C`: the pEC50 turned out to be 2.26.

For `COc1ccc(Nc2cccc3c(C)c(C)sc23)cc1`, the negative-log EC50 (pEC50) is recorded as 4.3.

As to `COc1cccc(Nc2cccc3c(C)c(C)sc23)c1`, the pEC50 was determined as 2.81.

`CCOC(=O)c1sc2ccccc2c1Nc1ccc(O)cc1O`: the pEC50 was 3.84.

As for `Fc1ccccc1Nc1csc2ccccc12`, the negative logarithm of the EC50 (pEC50) was 3.81.

Take `Cc1sc2c(Nc3cccc(C#N)c3)cccc2c1C`: the pEC50 came out at 1.84.

The subject of the next experiment is Radical scavenging activity. Kind of experiment: Antioxidant activity assessed as inhibition of DPPH radical formation. It counts as functional.
Regarding `Cc1sc2c(C)c(Nc3ccc(C#N)cc3)cc(C)c2c1C`, the pEC50 came out at 2.29.

As to `COc1ccc(Nc2cc(C)c3c(C)c(C)sc3c2C)c(Br)c1`, the negative logarithm of the EC50 (pEC50) is recorded as 3.98.

`COc1ccc(Nc2csc3ccccc23)c(OC)c1`: the negative logarithm of the EC50 (pEC50) worked out at 4.06.

Take `Cc1cc2c(C)c(C)sc2cc1Nc1ccccc1Br`: the pEC50 was 3.05.

Turning to `COc1ccc(Nc2cc3sc(C)c(C)c3cc2C)c(Br)c1`, the pEC50 is reported as 3.69.

`Cc1sc2c(C)c(Nc3ccccn3)cc(C)c2c1C`: the pEC50 is on record as 2.1.

Turning to `COc1ccc(Nc2cc3sc(C)c(C)c3cc2C)c(OC)c1`, the negative logarithm of the EC50 (pEC50) was 4.07.

`COc1cc(Br)c(Nc2cc3sc(C)c(C)c3cc2C)cc1OC`: the pEC50 came out at 3.81.

Consider `Cc1sc2c(C)c(Nc3ccccc3Br)cc(C)c2c1C`, for which the pEC50 came to 2.43.

For `COc1ccc(Nc2cc(C)c3c(C)c(C)sc3c2C)cc1`, the negative logarithm of the EC50 (pEC50) is 3.89.

Regarding `CCOC(=O)c1sc2ccccc2c1Nc1ccccc1O`, the pEC50 is reported as 3.91.

Regarding `Cc1cc2c(C)c(C)sc2cc1Nc1ccccc1I`, the pEC50 is recorded as 2.91.

`Cc1cc2c(C)c(C)sc2cc1Nc1ccc(C=O)cc1`: the pEC50 came to 2.39.

As to `COc1cccc(Nc2cc3sc(C)c(C)c3cc2C)c1`, the pEC50 is recorded as 3.38.
